# Assay results as given in US20020150975A1 (priority 2000, published 2002).
# System: SCLC cells
# Type: cell-based, human
row,Compound,effect on proliferation / rate of growth of SCLC cells
1,CN1CCCC1c1cccnc1 (stereo not drawn) [nicotine],increase the rate of growth
2,alpha-bungarotoxin,slow down or suppress proliferation
3,alpha-cobratoxin,slow down or suppress proliferation
